Reference: patent publication US8729014B2, “Specific HCV NS3 protease inhibitors” (RFS Pharma, LLC, priority 2010, dated 2014)

Columns and labels:
[1] = molecular target: T1, Elastase (Human Neutrophil) (Homo sapiens, UniProt P08246); test: Inhibition of human proteases: elastase; assay type: biochemical
T1 construct: purchased Athens Research and Technology 16-14-051200
Procedure: (§1) In an effort to circumvent similar toxicities, new protease inhibitors were evaluated for inhibition of a panel of important human proteases. The enzymes tested are Elastase (Neutrophil), Plasmin, Thrombin, and Cathepsin S.
Elastase (Human Neutrophil (Cat #16-14-051200 Athens Research and Technology, Athens Ga.)): Reactions were conducted in a sample volume of 100 μL per well in a clear 96 well plate. A 2× assay buffer was made containing 200 mM Tris-HCl (pH 7.5), 150 mM NaCl and 50% glycerol. For each sample 50 μL 2× assay buffer was added to each well. The substrate (MeOSuc-AAPV-pNA, Chromogenic Substrate, Cat #P-213, Enzo Life Sciences, Plymouth Meeting, Pa.; 50 mM stock in DMSO) was added to a final concentration of 1 mM. The drug dilutions were added (25 μL) at 4× concentrations in water. Finally, a mixture was made of 1 μL elastase and 22 μL water for each sample and 23 μL was added to each well. The samples were incubated at room temperature for 30 min. The absorbance at 405 nm was read on the Victor 3 plate reader. All samples were tested in duplicate. Results are shown as blank adjusted (no Elastase) percentages of maximum absorbance, which was given by a no inhibitor control.

Chymase = Chymase (Homo sapiens, UniProt P23946); test: Inhibition of human proteases: chymase; assay type: biochemical
[2] = Cytotoxicity assay in human PBM cells; assay type: cell-based; conditions: human, human PBM cells
Procedure: (§2) The toxicity of the compounds was assessed in Vero, human PBM, CEM (human lymphoblastoid), MT-2, and HepG2 cells, as described previously (see Schinazi R. F., Sommadossi J.-P., Saalmann V., Cannon D. L., Xie M.-Y., Hart G. C., Smith G. A. & Hahn E. F. Antimicrob. Agents Chemother. 1990, 34, 1061-67). Cycloheximide was included as positive cytotoxic control, and untreated cells exposed to solvent were included as negative controls. The cytotoxicity IC50 was obtained from the concentration-response curve using the median effective method described previously (see Chou T.-C. & Talalay P. Adv. Enzyme Regul. 1984, 22, 27-55; Belen'kii M. S. & Schinazi R. F. Antiviral Res. 1994, 25,1-11).

human PBM cells = test: Cytotoxicity assay in human PBM cells; assay type: cell-based; conditions: Homo sapiens, PBMC; PBM cells, 100 μM
Procedure: as §2

Chymo-trypsin = test: Inhibition of human proteases: chymotrypsin; assay type: biochemical
Cathepsin G = Cathepsin G (Homo sapiens, UniProt P08311); test: Inhibition of human proteases: cathepsin G; assay type: biochemical
[3] = tested on: Hepatitis C Virus NS3/4A protease T54A; test: biochemical; conditions: T54A vs Wild Type
[4] = molecular target: Hepatitis C Virus NS3/4A protease T54A (Hepatitis C virus genotype 1b, UniProt O92972, T1080A); test: biochemical
[5] = tested on: CEM (human lymphoblastoid) cells; test: Cytotoxicity assay in CEM cells; assay type: cell-based; conditions: Homo sapiens, CCRF-CEM, 100 μM
Procedure: as §2

[6] = Cytotoxicity assay in CEM cells; assay type: cell-based, human; conditions: human, CEM (human lymphoblastoid) cells
Procedure: as §2

[7] = molecular target: Hepatitis C Virus NS3/4A protease R155K (Hepatitis C virus genotype 1b, UniProt O92972, R1181K); test: biochemical
[8] = tested on: Hepatitis C Virus NS3/4A protease R155K; test: biochemical; conditions: R155K vs Wild Type
Plasmin = molecular target: T2, Plasmin (Homo sapiens, UniProt P00747); test: Inhibition of human proteases: plasmin; assay type: biochemical
T2 construct: purchased Anaspec
Procedure: as §1
Plasmin and Thrombin(Sensolyte RH110 Plasmin Activity Assay Kit and Sensolyte Thrombin Activity Assay Kit (Anaspec)): Reactions were conducted in a sample volume of 100 μL per well in a black 96 well plate. Protocol A was followed from the kit insert where the 2× assay buffer was diluted 1:1 with deionized water. Included in each assay were a positive control (diluted enzyme and no test compound), inhibitor control (contains diluted enzyme and plasmin inhibitor; component E from the kit or thrombin inhibitor; N-α-NAPAP synthetic inhibitor) and substrate control (assay buffer and substrate). Vehicle and autofluorescence controls were also performed. Drug dilutions were added (10 μL) at 10× concentrations in assay buffer. The enzyme was added at 40 μL/well at a concentration of 0.25 μg/mL (plasmin) and 1 μg/mL (thrombin) to all wells except the substrate control. Finally, 50 μL assay buffer containing substrate was added to each well. […] The fluorescence intensity was read on the Victor 3 plate reader at Ex/Em=490 nm/520 nm. […] Results are shown as substrate control adjusted percentages of maximum absorbance, which was given by the positive control.

[9] = tested on: Hepatitis C Virus NS3/4A protease D168A; test: biochemical; conditions: D168A vs Wild Type
[10] = tested on: Huh 7 Clone B cells (rRNA); test: HCV replicon assay, cytotoxicity by rRNA; assay type: cell-based; conditions: five days
Procedure: Huh 7 Clone B cells containing HCV replicon RNA would be seeded in a 96-well plate at 5000 cells/well, and the compounds tested at 10 μM in triplicate immediately after seeding. Following five days incubation (37° C., 5% CO2), total cellular RNA was isolated by using versaGene RNA purification kit from Gentra. Replicon RNA and an internal control (TaqMan rRNA control reagents, Applied Biosystems) were amplified in a single step multiplex Real Time RT-PCR Assay. The antiviral effectiveness of the compounds was calculated by subtracting the threshold RT-PCR cycle of the test compound from the threshold RT-PCR cycle of the no-drug control (ΔCt HCV). A ΔCt of 3.3 equals a 1-log reduction (equal to 90% less starting material) in Replicon RNA levels. The cytotoxicity of the compounds was also calculated by using the ΔCt rRNA values. (2′-Me-C) was used as the control. To determine EC90 and IC50 values^2, ΔCt: values were first converted into fraction of starting material^3 and then were used to calculate the % inhibition.

C=C[C@@H]1C[C@]1(NC(=O)[C@@H]1C[C@@H](OC(=O)N2Cc3cccc(F)c3C2)CN1C(=O)[C@@H](NC(=O)OC(C)(C)C)C(C)(C)C)C(=O)NS(=O)(=O)C1CC1 [Compound 10]
IC50 [1]: > 100000 nM
IC50 (Chymase): > 100000 nM
IC50 [2]: > 100000 nM
inhibition at 100 µM (human PBM cells): 17%
IC50 (Chymo-trypsin): > 100000 nM
IC50 (Cathepsin G): > 100000 nM
Fold Increase of EC50 [3]: 15.0
Fold Increase of EC90 [3]: 28.5
EC50 [4]: 70 nM
EC90 ([4]; T54A, read-out: Anti-HCV protease activity EC90): 850 nM
inhibition at 100 µM [5]: 11%
IC50 [6]: > 100000 nM
EC50 [7]: 270 nM
EC90 ([7]; R155K, read-out: Anti-HCV protease activity EC90): 2700 nM
Fold Increase of EC50 [8]: 55.8
Fold Increase of EC90 [8]: 91.4
IC50 (Plasmin): > 100000 nM
Fold Increase of EC50 [9]: 115.3
Fold Increase of EC90 [9]: 278.5
DCt rRNA ([10]; Conc 0.01 μM): −0.21
rRNA (% inhibition) ([10]; Conc 0.01 μM): −15.99
DCt rRNA ([10]; Conc 0.03 μM): −0.49
rRNA (% inhibition) ([10]; Conc 0.03 μM): −40.10
DCt rRNA ([10]; Conc 0.1 μM): −0.09
rRNA (% inhibition) ([10]; Conc 0.1 μM): −6.27
DCt rRNA ([10]; Conc 0.3 μM): 0.14
rRNA (% inhibition) ([10]; Conc 0.3 μM): 9.35
